{
  "source": "paper PMC12090182",
  "about": "“Repurposing of the RIPK1-Selective Benzo[1,4]oxazepin-4-one Scaffold for the Development of a Type III LIMK1/2 Inhibitor” (ACS Chemical Biology, 2025)",
  "assay_in_all_cases": "scanMAX KINOMEscan (Eurofins)",
  "assay_type_in_all_cases": "binding",
  "key": {"AAK1": {"molecular_target": "AAK1 (Homo sapiens, UniProt Q2M2I8)", "conditions": "1000 nM, read-out: Percent Control", "source_text": "(§1) Supplement cb5c00097_si_002.xlsx, sheet \"Table S6 (Eurofins Selectivity)\" | column: Percent Control"}, "ARK5": {"molecular_target": "ARK5 (Homo sapiens, UniProt O60285)", "sequence (O60285 whole entry)": "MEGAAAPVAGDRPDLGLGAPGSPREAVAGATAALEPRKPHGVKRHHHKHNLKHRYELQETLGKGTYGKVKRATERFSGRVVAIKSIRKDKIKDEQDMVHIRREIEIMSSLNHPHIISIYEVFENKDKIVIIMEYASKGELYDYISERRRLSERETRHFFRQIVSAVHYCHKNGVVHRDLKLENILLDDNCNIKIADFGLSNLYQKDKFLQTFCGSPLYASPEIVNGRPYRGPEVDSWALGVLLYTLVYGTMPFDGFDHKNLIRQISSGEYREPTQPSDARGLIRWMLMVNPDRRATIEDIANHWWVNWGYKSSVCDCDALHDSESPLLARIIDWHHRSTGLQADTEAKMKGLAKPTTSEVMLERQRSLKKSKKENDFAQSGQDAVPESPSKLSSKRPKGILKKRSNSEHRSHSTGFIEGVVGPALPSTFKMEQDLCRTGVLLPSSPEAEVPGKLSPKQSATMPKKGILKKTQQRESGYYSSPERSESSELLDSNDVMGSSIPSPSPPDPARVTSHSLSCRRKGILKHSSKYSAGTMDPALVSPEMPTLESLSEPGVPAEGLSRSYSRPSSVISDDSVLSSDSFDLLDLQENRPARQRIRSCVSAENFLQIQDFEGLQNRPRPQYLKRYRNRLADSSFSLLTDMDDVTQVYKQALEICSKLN", "conditions": "read-out: Percent Control", "source_text": "as §1"}, "ASK2": {"molecular_target": "ASK2 (Homo sapiens, UniProt O95382)", "conditions": "1000 nM, read-out: Percent Control", "source_text": "as §1"}, "BUB1": {"molecular_target": "BUB1 (Homo sapiens, UniProt O43683)", "conditions": "1000 nM, read-out: Percent Control", "source_text": "as §1"}, "CAMK4": {"molecular_target": "CAMK4 (Homo sapiens, UniProt Q16566)", "conditions": "1000 nM, read-out: Percent Control", "source_text": "as §1"}, "CDKL3": {"molecular_target": "CDKL3 (Homo sapiens, UniProt Q8IVW4)", "conditions": "read-out: Percent Control", "source_text": "as §1"}, "CSNK1A1L": {"molecular_target": "CSNK1A1L (Homo sapiens, UniProt Q8N752)", "conditions": "1000 nM, read-out: Percent Control", "source_text": "as §1"}, "DAPK1": {"molecular_target": "DAPK1 (Homo sapiens, UniProt P53355)", "conditions": "1000 nM, read-out: Percent Control", "source_text": "as §1"}, "DDR2": {"molecular_target": "DDR2 (Homo sapiens, UniProt Q16832)", "conditions": "1000 nM, read-out: Percent Control", "source_text": "as §1"}, "DMPK2": {"molecular_target": "DMPK2 (Homo sapiens, UniProt Q6DT37)", "sequence (Q6DT37 whole entry)": "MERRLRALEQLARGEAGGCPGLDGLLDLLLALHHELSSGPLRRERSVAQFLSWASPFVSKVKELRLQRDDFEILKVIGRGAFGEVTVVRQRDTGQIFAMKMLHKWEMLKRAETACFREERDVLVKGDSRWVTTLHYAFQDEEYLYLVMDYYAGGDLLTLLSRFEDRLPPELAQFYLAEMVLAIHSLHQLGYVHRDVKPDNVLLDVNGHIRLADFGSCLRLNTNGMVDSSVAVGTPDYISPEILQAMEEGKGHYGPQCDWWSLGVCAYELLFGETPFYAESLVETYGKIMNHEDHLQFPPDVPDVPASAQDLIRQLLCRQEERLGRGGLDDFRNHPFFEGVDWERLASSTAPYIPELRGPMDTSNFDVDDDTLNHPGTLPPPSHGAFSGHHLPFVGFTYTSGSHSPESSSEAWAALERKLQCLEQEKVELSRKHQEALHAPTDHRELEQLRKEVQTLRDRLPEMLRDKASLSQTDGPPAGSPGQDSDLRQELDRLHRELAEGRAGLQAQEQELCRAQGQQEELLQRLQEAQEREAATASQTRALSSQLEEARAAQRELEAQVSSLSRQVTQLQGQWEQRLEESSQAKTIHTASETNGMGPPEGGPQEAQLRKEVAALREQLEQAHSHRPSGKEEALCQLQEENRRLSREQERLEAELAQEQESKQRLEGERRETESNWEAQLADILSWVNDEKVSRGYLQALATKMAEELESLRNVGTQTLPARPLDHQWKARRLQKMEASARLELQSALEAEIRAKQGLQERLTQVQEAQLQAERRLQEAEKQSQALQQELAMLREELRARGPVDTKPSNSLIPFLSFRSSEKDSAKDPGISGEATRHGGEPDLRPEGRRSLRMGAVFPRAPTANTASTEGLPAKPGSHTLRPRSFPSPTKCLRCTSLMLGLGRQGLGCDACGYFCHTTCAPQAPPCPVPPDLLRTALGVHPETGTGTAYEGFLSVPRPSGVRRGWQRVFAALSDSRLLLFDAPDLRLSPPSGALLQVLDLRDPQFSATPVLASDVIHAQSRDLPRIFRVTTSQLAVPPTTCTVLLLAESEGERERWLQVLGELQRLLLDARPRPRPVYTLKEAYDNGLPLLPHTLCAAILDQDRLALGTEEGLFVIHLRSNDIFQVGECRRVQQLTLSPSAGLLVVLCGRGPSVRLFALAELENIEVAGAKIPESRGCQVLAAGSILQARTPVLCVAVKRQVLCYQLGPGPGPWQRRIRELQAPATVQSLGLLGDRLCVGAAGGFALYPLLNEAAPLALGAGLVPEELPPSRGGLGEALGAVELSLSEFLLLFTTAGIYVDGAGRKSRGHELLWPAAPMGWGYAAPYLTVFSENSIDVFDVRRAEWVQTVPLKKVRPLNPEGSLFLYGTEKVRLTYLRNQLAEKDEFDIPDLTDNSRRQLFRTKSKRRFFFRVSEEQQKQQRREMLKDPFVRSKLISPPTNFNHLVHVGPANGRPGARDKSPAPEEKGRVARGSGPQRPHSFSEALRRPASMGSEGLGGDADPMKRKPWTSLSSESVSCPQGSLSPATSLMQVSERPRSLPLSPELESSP", "conditions": "read-out: Percent Control", "source_text": "as §1"}, "EPHB2": {"molecular_target": "EPHB2 (Homo sapiens, UniProt P29323)", "conditions": "1000 nM, read-out: Percent Control", "source_text": "as §1"}, "FER": {"molecular_target": "FER (Homo sapiens, UniProt P16591)", "conditions": "1000 nM, read-out: Percent Control", "source_text": "as §1"}, "HCK": {"molecular_target": "HCK (Homo sapiens, UniProt P08631)", "conditions": "1000 nM, read-out: Percent Control", "source_text": "as §1"}, "IGF1R": {"molecular_target": "IGF1R (Homo sapiens, UniProt P08069)", "sequence (P08069 31-1367)": "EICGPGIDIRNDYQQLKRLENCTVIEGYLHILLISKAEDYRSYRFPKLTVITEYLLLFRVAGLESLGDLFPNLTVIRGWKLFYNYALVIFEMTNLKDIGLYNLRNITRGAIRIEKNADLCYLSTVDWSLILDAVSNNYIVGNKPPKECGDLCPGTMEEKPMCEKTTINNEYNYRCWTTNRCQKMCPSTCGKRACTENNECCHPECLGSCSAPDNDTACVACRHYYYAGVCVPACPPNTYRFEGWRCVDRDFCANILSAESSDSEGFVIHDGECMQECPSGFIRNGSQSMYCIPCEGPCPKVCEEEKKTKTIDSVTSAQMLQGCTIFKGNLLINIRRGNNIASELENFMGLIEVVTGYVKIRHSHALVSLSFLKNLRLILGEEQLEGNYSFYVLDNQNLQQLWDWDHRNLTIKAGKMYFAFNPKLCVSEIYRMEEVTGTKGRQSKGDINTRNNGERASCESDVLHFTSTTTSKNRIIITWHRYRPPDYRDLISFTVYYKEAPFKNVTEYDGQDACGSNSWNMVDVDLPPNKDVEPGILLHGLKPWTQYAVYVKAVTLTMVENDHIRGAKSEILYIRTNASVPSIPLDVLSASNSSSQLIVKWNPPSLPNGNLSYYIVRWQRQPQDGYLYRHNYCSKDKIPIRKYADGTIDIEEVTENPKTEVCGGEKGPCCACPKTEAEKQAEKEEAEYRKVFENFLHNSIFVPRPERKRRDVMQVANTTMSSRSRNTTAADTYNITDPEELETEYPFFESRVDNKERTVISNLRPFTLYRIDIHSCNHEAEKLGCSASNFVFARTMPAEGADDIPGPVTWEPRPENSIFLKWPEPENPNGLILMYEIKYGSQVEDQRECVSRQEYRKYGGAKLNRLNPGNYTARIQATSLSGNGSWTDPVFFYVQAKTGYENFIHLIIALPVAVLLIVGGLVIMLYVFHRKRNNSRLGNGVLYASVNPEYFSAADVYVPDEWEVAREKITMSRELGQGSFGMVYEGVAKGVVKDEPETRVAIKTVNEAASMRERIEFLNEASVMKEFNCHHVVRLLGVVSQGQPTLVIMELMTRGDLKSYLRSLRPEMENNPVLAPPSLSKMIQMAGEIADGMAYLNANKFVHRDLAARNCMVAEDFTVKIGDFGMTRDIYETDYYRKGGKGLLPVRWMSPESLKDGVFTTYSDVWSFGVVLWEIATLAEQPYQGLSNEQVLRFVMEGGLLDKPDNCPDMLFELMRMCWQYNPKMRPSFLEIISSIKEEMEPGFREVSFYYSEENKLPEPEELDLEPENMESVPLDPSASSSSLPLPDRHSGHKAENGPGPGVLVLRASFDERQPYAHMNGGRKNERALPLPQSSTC", "conditions": "read-out: Percent Control", "source_text": "as §1"}, "[1]": {"molecular_target": "JAK3(JH1domain-catalytic) (Homo sapiens, UniProt P52333)", "conditions": "1000 nM, read-out: Percent Control", "source_text": "as §1"}, "LZK": {"molecular_target": "LZK (Homo sapiens, UniProt O43283)", "conditions": "1000 nM, read-out: Percent Control", "source_text": "as §1"}, "MAP3K4": {"molecular_target": "MAP3K4 (Homo sapiens, UniProt Q9Y6R4)", "conditions": "1000 nM, read-out: Percent Control", "source_text": "as §1"}, "MEK1": {"molecular_target": "MEK1 (Homo sapiens, UniProt Q02750)", "conditions": "compound concentration 100 nM; Entrez MAP2K1; read-out: Percent Control", "source_text": "as §1"}, "MST2": {"molecular_target": "MST2 (Homo sapiens, UniProt Q13188)", "conditions": "1000 nM, read-out: Percent Control", "source_text": "as §1"}, "MST4": {"molecular_target": "MST4 (Homo sapiens, UniProt Q9P289)", "conditions": "1000 nM, read-out: Percent Control", "source_text": "as §1"}, "NEK10": {"molecular_target": "NEK10 (Homo sapiens, UniProt Q6ZWH5)", "conditions": "1000 nM, read-out: Percent Control", "source_text": "as §1"}, "PAK4": {"molecular_target": "PAK4 (Homo sapiens, UniProt O96013)", "conditions": "1000 nM, read-out: Percent Control", "source_text": "as §1"}, "PAK7": {"molecular_target": "PAK7 (Homo sapiens, UniProt Q9P286)", "conditions": "1000 nM, read-out: Percent Control", "source_text": "as §1"}, "PDPK1": {"molecular_target": "PDPK1 (Homo sapiens, UniProt O15530)", "conditions": "1000 nM, read-out: Percent Control", "source_text": "as §1"}, "PIK4CB": {"molecular_target": "PIK4CB (Homo sapiens, UniProt Q9UBF8)", "conditions": "1000 nM, read-out: Percent Control", "source_text": "as §1"}, "PIKFYVE": {"molecular_target": "PIKFYVE (Homo sapiens, UniProt Q9Y2I7)", "conditions": "compound concentration 100 nM; Entrez PIKFYVE; read-out: Percent Control", "source_text": "as §1"}, "PRKD2": {"molecular_target": "PRKD2 (Homo sapiens, UniProt Q9BZL6)", "conditions": "1000 nM, read-out: Percent Control", "source_text": "as §1"}, "PRKG2": {"molecular_target": "PRKG2 (Homo sapiens, UniProt Q13237)", "conditions": "1000 nM, read-out: Percent Control", "source_text": "as §1"}, "PRKX": {"molecular_target": "PRKX (Homo sapiens, UniProt P51817)", "conditions": "1000 nM, read-out: Percent Control", "source_text": "as §1"}, "QSK": {"molecular_target": "QSK (Homo sapiens, UniProt Q9Y2K2)", "sequence (Q9Y2K2 whole entry)": "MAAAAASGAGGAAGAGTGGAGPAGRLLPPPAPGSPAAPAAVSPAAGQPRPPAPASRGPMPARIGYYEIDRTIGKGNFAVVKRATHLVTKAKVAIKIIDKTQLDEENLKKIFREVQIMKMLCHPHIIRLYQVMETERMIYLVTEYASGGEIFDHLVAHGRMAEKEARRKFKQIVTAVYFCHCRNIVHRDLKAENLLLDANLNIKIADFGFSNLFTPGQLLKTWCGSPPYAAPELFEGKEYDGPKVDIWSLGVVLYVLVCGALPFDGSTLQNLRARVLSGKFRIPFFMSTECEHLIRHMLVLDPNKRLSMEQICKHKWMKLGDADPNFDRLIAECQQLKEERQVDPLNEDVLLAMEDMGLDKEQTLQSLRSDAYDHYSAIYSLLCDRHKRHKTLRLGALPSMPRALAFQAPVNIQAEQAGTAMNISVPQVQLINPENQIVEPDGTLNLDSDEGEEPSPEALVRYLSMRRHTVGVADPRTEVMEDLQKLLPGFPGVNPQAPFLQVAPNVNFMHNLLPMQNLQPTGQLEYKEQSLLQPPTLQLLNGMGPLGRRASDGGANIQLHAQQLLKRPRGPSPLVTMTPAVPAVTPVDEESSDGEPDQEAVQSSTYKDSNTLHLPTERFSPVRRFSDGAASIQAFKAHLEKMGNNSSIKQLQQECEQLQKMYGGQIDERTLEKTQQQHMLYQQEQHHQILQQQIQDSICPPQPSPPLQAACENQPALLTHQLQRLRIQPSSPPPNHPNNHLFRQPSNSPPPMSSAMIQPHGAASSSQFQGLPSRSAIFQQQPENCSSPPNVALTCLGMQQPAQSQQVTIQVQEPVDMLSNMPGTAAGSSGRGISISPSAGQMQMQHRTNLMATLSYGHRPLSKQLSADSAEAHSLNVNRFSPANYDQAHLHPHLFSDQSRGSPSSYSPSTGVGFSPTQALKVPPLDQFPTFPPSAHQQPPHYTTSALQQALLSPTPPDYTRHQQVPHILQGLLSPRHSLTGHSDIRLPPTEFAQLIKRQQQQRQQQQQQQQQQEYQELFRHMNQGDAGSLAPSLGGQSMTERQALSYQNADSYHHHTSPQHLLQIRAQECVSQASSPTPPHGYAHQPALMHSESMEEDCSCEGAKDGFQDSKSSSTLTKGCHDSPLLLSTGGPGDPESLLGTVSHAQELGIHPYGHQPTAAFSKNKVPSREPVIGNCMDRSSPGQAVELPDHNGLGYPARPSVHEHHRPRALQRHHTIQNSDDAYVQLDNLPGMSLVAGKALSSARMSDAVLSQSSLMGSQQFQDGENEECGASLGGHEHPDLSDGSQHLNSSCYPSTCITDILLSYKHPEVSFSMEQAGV", "conditions": "read-out: Percent Control", "source_text": "as §1"}, "[2]": {"molecular_target": "RSK1(Kin.Dom.1-N-terminal) (Homo sapiens, UniProt Q15418)", "conditions": "compound concentration 100 nM; Entrez RPS6KA1; read-out: Percent Control", "source_text": "as §1"}, "[3]": {"molecular_target": "RSK2(Kin.Dom.1-N-terminal) (Homo sapiens, UniProt P51812)", "conditions": "compound concentration 100 nM; Entrez RPS6KA3; read-out: Percent Control", "source_text": "as §1"}, "TLK2": {"molecular_target": "TLK2 (Homo sapiens, UniProt Q86UE8)", "conditions": "compound concentration 100 nM; Entrez TLK2; read-out: Percent Control", "source_text": "as §1"}, "TNK1": {"molecular_target": "TNK1 (Homo sapiens, UniProt Q13470)", "conditions": "1000 nM, read-out: Percent Control", "source_text": "as §1"}, "TTK": {"molecular_target": "TTK (Homo sapiens, UniProt P33981)", "conditions": "1000 nM, read-out: Percent Control", "source_text": "as §1"}, "WEE1": {"molecular_target": "WEE1 (Homo sapiens, UniProt P30291)", "conditions": "1000 nM, read-out: Percent Control", "source_text": "as §1"}, "ZAP70": {"molecular_target": "ZAP70 (Homo sapiens, UniProt P43403)", "conditions": "compound concentration 100 nM; Entrez ZAP70; read-out: Percent Control", "source_text": "as §1"}},
  "data": [
    {"compound": "CN1C(=O)[C@@H](N2CCc3c(nn(Cc4ccccc4)c3C(N)=O)C2=O)COc2cc(Cl)ccc21", "note": "[Compound 10, (S)-2-benzyl-6-(8-chloro-5-methyl-4-oxo-2,3,4,5-tetrahydrobenzo[b][1,4]oxazepin-3-yl)-7-oxo-4,5,6,7-tetrahydro-2H-pyrazolo[3,4-c]pyridine-3-carboxamide]", "values": [
      {"measurement": "remaining binding at 1 µM", "setting": "AAK1", "result": 83, "unit": "%"},
      {"measurement": "remaining binding at 1 µM", "setting": "ARK5; 1000 nM", "result": 99, "unit": "%"},
      {"measurement": "remaining binding at 0.1 µM", "setting": "ARK5; compound concentration 100 nM, Entrez NUAK1", "result": 86, "unit": "%"},
      {"measurement": "remaining binding at 1 µM", "setting": "ASK2", "result": 90, "unit": "%"},
      {"measurement": "remaining binding at 1 µM", "setting": "BUB1", "result": 78, "unit": "%"},
      {"measurement": "remaining binding at 1 µM", "setting": "CAMK4", "result": 95, "unit": "%"},
      {"measurement": "remaining binding at 1 µM", "setting": "CDKL3; 1000 nM", "result": 100, "unit": "%"},
      {"measurement": "remaining binding at 0.1 µM", "setting": "CDKL3; compound concentration 100 nM, Entrez CDKL3", "result": 91, "unit": "%"},
      {"measurement": "remaining binding at 1 µM", "setting": "CSNK1A1L", "result": 85, "unit": "%"},
      {"measurement": "remaining binding at 1 µM", "setting": "DAPK1", "result": 96, "unit": "%"},
      {"measurement": "remaining binding at 1 µM", "setting": "DDR2", "result": 86, "unit": "%"},
      {"measurement": "remaining binding at 1 µM", "setting": "DMPK2; 1000 nM", "result": 100, "unit": "%"},
      {"measurement": "remaining binding at 0.1 µM", "setting": "DMPK2; compound concentration 100 nM, Entrez CDC42BPG", "result": 92, "unit": "%"},
      {"measurement": "remaining binding at 1 µM", "setting": "EPHB2", "result": 81, "unit": "%"},
      {"measurement": "remaining binding at 1 µM", "setting": "FER", "result": 90, "unit": "%"},
      {"measurement": "remaining binding at 1 µM", "setting": "HCK", "result": 92, "unit": "%"},
      {"measurement": "remaining binding at 1 µM", "setting": "IGF1R; 1000 nM", "result": 100, "unit": "%"},
      {"measurement": "remaining binding at 0.1 µM", "setting": "IGF1R; compound concentration 100 nM, Entrez IGF1R", "result": 88, "unit": "%"},
      {"measurement": "remaining binding at 1 µM", "setting": "[1]", "result": 85, "unit": "%"},
      {"measurement": "remaining binding at 1 µM", "setting": "LZK", "result": 67, "unit": "%"},
      {"measurement": "remaining binding at 1 µM", "setting": "MAP3K4", "result": 92, "unit": "%"},
      {"measurement": "remaining binding at 0.1 µM", "setting": "MEK1", "result": 91, "unit": "%"},
      {"measurement": "remaining binding at 1 µM", "setting": "MST2", "result": 80, "unit": "%"},
      {"measurement": "remaining binding at 1 µM", "setting": "MST4", "result": 92, "unit": "%"},
      {"measurement": "remaining binding at 1 µM", "setting": "NEK10", "result": 94, "unit": "%"},
      {"measurement": "remaining binding at 1 µM", "setting": "PAK4", "result": 73, "unit": "%"},
      {"measurement": "remaining binding at 1 µM", "setting": "PAK7", "result": 91, "unit": "%"},
      {"measurement": "remaining binding at 1 µM", "setting": "PDPK1", "result": 91, "unit": "%"},
      {"measurement": "remaining binding at 1 µM", "setting": "PIK4CB", "result": 75, "unit": "%"},
      {"measurement": "remaining binding at 0.1 µM", "setting": "PIKFYVE", "result": 98, "unit": "%"},
      {"measurement": "remaining binding at 1 µM", "setting": "PRKD2", "result": 96, "unit": "%"},
      {"measurement": "remaining binding at 1 µM", "setting": "PRKG2", "result": 90, "unit": "%"},
      {"measurement": "remaining binding at 1 µM", "setting": "PRKX", "result": 78, "unit": "%"},
      {"measurement": "remaining binding at 1 µM", "setting": "QSK; 1000 nM", "result": 98, "unit": "%"},
      {"measurement": "remaining binding at 0.1 µM", "setting": "QSK; compound concentration 100 nM, Entrez KIAA0999", "result": 90, "unit": "%"},
      {"measurement": "remaining binding at 0.1 µM", "setting": "[2]", "result": 75, "unit": "%"},
      {"measurement": "remaining binding at 0.1 µM", "setting": "[3]", "result": 100, "unit": "%"},
      {"measurement": "remaining binding at 0.1 µM", "setting": "TLK2", "result": 82, "unit": "%"},
      {"measurement": "remaining binding at 1 µM", "setting": "TNK1", "result": 77, "unit": "%"},
      {"measurement": "remaining binding at 1 µM", "setting": "TTK", "result": 93, "unit": "%"},
      {"measurement": "remaining binding at 1 µM", "setting": "WEE1", "result": 95, "unit": "%"},
      {"measurement": "remaining binding at 0.1 µM", "setting": "ZAP70", "result": 84, "unit": "%"}
    ]}
  ]
}
